Measurements: patent US12383628B2 (priority 2016, dated 2025)
“Also recorded” adds a separate entry of the source. Square brackets hold non-standard residues; d marks the D form. Ends that are not written are not given here. Peptide text beside a SMILES is read from it. Phe(3-Br) = N[C@@H](Cc1cccc(Br)c1)C(=O)O; Dmt = Cc1cc(O)cc(C)c1C[C@H](N)C(=O)O; β3hF = N[C@H](CC(=O)O)Cc1ccccc1

How the values were obtained:
Male CD1 mice = assay: Radiant heat tail-flick test after s.c. administration, opioids in solution or co-formulated with hydrogelator; format: in vivo, mouse; settings: for Time after administration at which no effect was detected / Time of peak antinociceptive action: s.c. bolus in solution (morphine 5 mg/kg; 14-MM 2.25 μg)
Method: Male CD1 mice (6-8 weeks old, body weight average 30 g) were obtained from Charles River (Sulzfeld, Germany). Mice were group-housed in a temperature controlled room with a 12 h light/dark cycle and with free access to food and water. All animal studies were conducted in accordance with ethical guidelines and animal welfare standards according to Austrian regulations for animal research, and were approved by the Committee of Animal Care of the Austrian Federal Ministry of Science and Research.
The radiant heat tail-flick test was used to assess antinociceptive effects of tested drugs after s.c. administration in mice using an UB 37360 Ugo Basile analgesiometer (Ugo Basile s.r.l., Varese, Italy) as described previously (A. Novoa et al., 2012). The reaction time required by the mouse to remove its tail due to the radiant heat was measured and defined as the tail-flick latency. A cut-off time of 10 s was also used in order to minimize tissue damage. The antinociceptive response was expressed as percent of Maximum Possible Effect (% MPE)=[(TL-BL)/(cut-off time-BL)]×100. Data were analyzed with ANOVA using Tukey's multiple comparison test, and graphically processed with the GraphPad Prism Software (GraphPad Software Inc., San Diego, CA).
(§1) Performed as described in Example 5.
as §1
The antinociceptive effect of co-formulations of a peptide hydrogelator as described herein with peptide-based analgesics was investigated in a model of thermal nociception using the tail-flick test in mice. […] The Tail-flick test was performed as described in Example 5.

human plasma = settings: 37° C.; for cleaved bond / fragment found: up to 60 min
[1] = Stability and degradability of biogels in human plasma (Example 8); format: in vitro ADME; settings: human, human plasma; 37° C., in solution, 14 μM
Method: After centrifugation at 14 000 rpm for 15 minutes, 100 μL supernatant was diluted with 100 μL milliQ water in the injection vial. Injection samples were vortexed for 5 seconds and were analyzed by HPLC. […] Calculations were performed using Microsoft® Office Professional 2010 Excel.

KOR = KOR (Homo sapiens, UniProt P41145); assay: Binding tests (Ki) KOR
Chain of KOR (P41145 whole entry): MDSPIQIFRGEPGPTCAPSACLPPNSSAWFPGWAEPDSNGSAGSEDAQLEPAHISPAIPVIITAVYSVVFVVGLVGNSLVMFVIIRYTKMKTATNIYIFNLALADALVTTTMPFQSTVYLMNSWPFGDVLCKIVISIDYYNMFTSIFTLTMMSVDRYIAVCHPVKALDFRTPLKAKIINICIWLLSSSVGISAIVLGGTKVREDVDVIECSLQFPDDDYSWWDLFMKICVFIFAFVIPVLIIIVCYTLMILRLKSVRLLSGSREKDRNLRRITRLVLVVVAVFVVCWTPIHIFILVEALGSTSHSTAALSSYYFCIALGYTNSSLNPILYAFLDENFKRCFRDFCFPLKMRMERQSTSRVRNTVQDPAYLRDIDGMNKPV

MOR = MOR (Homo sapiens, UniProt P35372); assay: Binding tests (Ki) MOR
Chain of MOR (P35372 whole entry): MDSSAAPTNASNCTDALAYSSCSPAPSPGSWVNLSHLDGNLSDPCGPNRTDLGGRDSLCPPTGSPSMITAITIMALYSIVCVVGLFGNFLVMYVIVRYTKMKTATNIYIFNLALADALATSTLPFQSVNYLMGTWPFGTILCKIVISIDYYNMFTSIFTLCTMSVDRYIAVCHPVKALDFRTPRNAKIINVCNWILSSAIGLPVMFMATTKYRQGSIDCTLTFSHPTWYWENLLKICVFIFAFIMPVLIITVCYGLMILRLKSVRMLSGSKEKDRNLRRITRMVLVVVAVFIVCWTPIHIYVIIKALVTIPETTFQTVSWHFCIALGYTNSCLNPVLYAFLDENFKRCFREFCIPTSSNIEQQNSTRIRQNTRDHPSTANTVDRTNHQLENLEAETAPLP

DOR = DOR (Homo sapiens, UniProt P41143); assay: Binding tests (Ki) DOR
Chain of DOR (P41143 whole entry): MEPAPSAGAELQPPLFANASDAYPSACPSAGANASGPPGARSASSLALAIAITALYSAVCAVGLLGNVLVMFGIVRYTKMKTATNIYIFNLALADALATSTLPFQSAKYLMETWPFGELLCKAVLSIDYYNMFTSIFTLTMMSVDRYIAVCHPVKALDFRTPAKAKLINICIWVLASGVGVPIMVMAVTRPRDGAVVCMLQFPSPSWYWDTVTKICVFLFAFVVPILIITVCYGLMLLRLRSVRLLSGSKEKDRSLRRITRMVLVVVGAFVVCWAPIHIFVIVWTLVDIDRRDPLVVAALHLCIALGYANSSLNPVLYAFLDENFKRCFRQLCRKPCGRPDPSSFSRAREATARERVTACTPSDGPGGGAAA

[2] = Peptide gelation (tilted tube / inverted vial test, minimum gelation concentration); format: physicochemical; settings: for Minimum gelation concentration (w/v % in PBS): '/' = no gel
Method: The peptide gelation occurred by dissolving the TFA salt of the hexapeptide (2 mg) in 100 μL of PBS solution (pH 7.4) or physiological saline solution (0.9% NaCl).
Both peptides 2 and 4 (Table 1) gave a transparent gel in the same conditions (PBS 10 mM at pH 7.4 with a minimum gelation concentration of 24 mM; 2% w/v). To evaluate the mechanical properties of these hydrogels in a more quantitative manner, rheological experiments were performed. The viscoelastic properties of the peptide hydrogels were measured by dynamic rheometry at 37° C. This technique allowed to measure the storage modulus G′ (corresponding to the material's stiffness or rigidity), loss modulus G″ (corresponding to the viscous properties of the material) and loss factor tan (o) (ratio of G″ over G′). According to the Winter-Chambon criterion, a material reaches gelation in rheological terms if the phase angle o gets frequency-independent (F. Chambon et al., 1987 and H. Winter et al., 1987).
The peptide gelation occurred by dissolving the TFA salt of the peptide in 100 μL of PBS solution or physiological saline solution (0.9% NaCl) (pH 7.4).
The peptide gelation occurs by dissolving the TFA salt of the hydrogelator (1 or 2 mg) in 100 μL of aqueous media, PBS solution (pH 7.4) or physiological saline solution (0.9% NaCl). After successive vortexing and sonication, the gel is left to rest overnight at room temperature.
The hydrogelation was realized under physiologically relevant conditions, namely via the addition of phosphate-buffered saline (PBS) or sterile physiological saline solution (0.9% NaCl). The needed amount of hydrogelator was weighed in an Eppendorf® and solubilized by the addition of the above solutions. After vortex and sonication steps, the resulting solution was left at room temperature until gelation occurred. The gelation was qualitatively verified by the inverted vial test (if no gravitational flow was visible the gelation was considered successful). It can be noticed that all peptide hydrogelators depicted formed gels in PBS and saline solution at a concentration of 1 to 2% w/v.

[3] = Dynamic rheometry of hydrogels (storage modulus G′); format: physicochemical
Method: Dynamic rheometry measurements were performed on an AR-G2 rheometer (TA Instruments) equipped with electrically heated plates and a 10 mm-diameter aluminium parallel plate-plate geometry. Viscoelastic properties were measured by oscillatory frequency sweeps at 37° C. in the range between 0.01 and 10 Hz, using a controlled strain of 0.05%. Hydrogel samples were made 12 h in advance. A ring-shaped reservoir filled with a saturated NH4Cl solution was used as a solvent trap.

L929 mouse fibroblasts = assay: Cytotoxicity, Live/Dead viability staining on hydrogels (Example 9); format: cell-based
Method: Hydrogels were prepared at 1, 2 or 3 mg/100 μL as duplicate in a 96-well ULA plate (Cat #CORN3474; Corning-Costar, 60 μL each well). The gels were photographed and pre-equilibrated before seeding with cells. For equilibration, gels were incubated at room temperature in 40 μL of L929 culture medium with double-strength Anti-Anti (Cat #15240062, GIBCO) for 2 h prior to seeding with cells. The equilibration medium was removed before cell seeding and retained to examine if the gels dissolved (even partially) or disintegrated into the culture medium. Next, […] mouse fibroblasts (ATCC) were seeded onto hydrogels at a concentration of 200,000 cells/ml in a volume of 50 μl. The cells were photographed immediately after seeding, observed by microscopy 2 h post-seeding and then observed and photographed at 24 h post-seeding. The cell culture medium consisted of MEM+GlutaMAX I (Cat #41090-036; GIBCO); 10% foetal bovine serum (Cat #12003C; SAFC, Sigma), 2× Anti-Anti (Cat #[…]) and 1× Non-Essential Amino Acids (Cat #41090-036; GIBCO).
Bright field microscopy was performed through use of a IX71 inverted microscope with NIS-Elements F3.0 imaging software (Olympus). The TE2000 Eclipse fluorescent microscope with NIS-Elements AR3.2 software (Nikon) was used for fluorescence imaging microscopy. Automated cell counting was performed on the NC-200 NucleoCounter using proprietary lysis and stabilising reagents and cassettes (ChemoMetec).
The viability and distribution of cells was assessed using a LIVE/DEAD Viability/Cytotoxicity Kit *for Mammalian cells* (Live-Dead Kit), (Cat #13224; Molecular Probes). Briefly, a working solution of live/dead solution was made as per manufacturer's instructions by adding 1.25 μl of Calcein AM (solution A) to 2.5 ml of pre-warmed PBS. The solution was thoroughly mixed by vortex and 2.5 μl of Ethidium homodimer (solution B), was added before vortexing a second time to mix. Excess medium was removed and the gels rinsed with 20 μl of warm PBS before a 40 μl of Live/Dead kit working solution was added to each well. The plate was incubated in a 37° C. cell culture incubator for 20 min before viewing using a fluorescent microscope. Green fluorescence was emitted from the cytoplasm of viable cells (excitation/emission ˜495 nm/˜515 nm) while dead cell nuclei fluoresced red (excitation/emission ˜495/˜635 nm) allowing a distinction to be made between viable and dead cells.

[4] = TEM / cryo-TEM fibre morphology of hydrogels; format: physicochemical; settings: cryoTEM and negative staining, Example 9
Method: Formvar carbon-coated 400-mesh copper grids (Agar Scientific, Stansted, United Kingdom) were treated with plasma using an ELMO Glow discharge system to clean the grid surface and to render the carbon surface hydrophilic. Hydrogel samples were prepared 12 h in advance as described above. Small aliquots of sample (5 μL) were pipetted onto the carbon grids for adsorption. After 30 s, excess of sample was removed by using a Whatman 541 filter paper. The loaded grids were stained during 10 s with 1% uranyl formate after which the grids were air-dried. Samples were analysed using a JEOL JEM-1400 transmission electron microscope, operating at accelerating voltage of 120 kV. Images were recorded on a CMOS TemCam-F416 camera and accessory software of TVIPS.
200-mesh copper grids coated with perforated carbon film (Lacey carbon film: ProSci-Tech Old, Australia) were used and were glow discharged in nitrogen for 5 s immediately prior to use. Hydrogel samples were prepared 12 h in advance as described above. Small aliquots of sample (4 μL) were pipetted onto the carbon grids for adsorption. After 30 s, excess of sample was removed by using a Whatman 541 filter paper. The grid was then plunged into liquid ethane cooled by liquid nitrogen. Frozen grids were stored in liquid nitrogen until required. Samples were analysed using a Gatan 626 cryoholder and Tecnai 12 Transmission electron microscope, operating at accelerating voltage of 120 kV. Images were recorded using an FEI Eagle 4k×4k CCD camera.

in vitro = settings: human, plasma
Method: Human plasma was obtained from the Belgian Red Cross (Vlaams-Brabant, Leuven). Prior to the stability test, selectivity, stability of the compound in the injection solvent, linearity, accuracy and precision of the method were investigated. Frozen (−20° C.) human plasma samples were thawed and thermostated to 37±2° C. Dissolution of the lyophilized peptide and consecutive dilutions were performed in water. The resulting aqueous solutions of each peptide individually was spiked in human plasma (10:90 v/v) with final plasma concentrations of 9 μM.
On every time point 100 μL spiked plasma was transferred to a 500 μL Eppendorf tube and a protein crash was performed using the corresponding precipitation solvent (4° C.). Suspensions were vortexed for 15 s and placed at 4° C. for 30 to 45 min. After centrifugation at 18 625 g for 20 min, 100 μL supernatant was diluted with 100 μL water in the injection vial.
Injection samples were vortexed for 5 sand placed in the autosampler. […] Concentrations were calculated by use of the calibration curve and transferred to a semi-log chart presenting the log concentrations as a function of time. The optimum curve was used to calculate the peptide half-life. Calculations were performed using Microsoft® Office Professional 2010 Excel.

## CN1CC[C@]23c4c5ccc(O)c4O[C@H]2[C@@H](O)C=C[C@H]3[C@H]1C5 [morphine]
Male CD1 mice
  Time after administration at which no effect was detected: 3 h
  Time of peak antinociceptive action: 30 min
Male CD1 mice; s.c. bolus in solution, 5 mg/kg (0.15 mg per mouse)
  Antinociceptive effect (% MPE): 80 % MPE

## CO[C@@]12CCC(=O)[C@]3(C)Oc4c(O)ccc5c4[C@@]31CCN(C)[C@@H]2C5 [14-MM, 14-methoxymethopon]
Male CD1 mice; s.c. bolus
  Dose required to produce 80% MPE, times lower than morphine: 66 times
Male CD1 mice; s.c. bolus 2.25 μg, 30 min
  Antinociceptive effect at peak of action (% MPE): 80 % of MPE
Male CD1 mice
  Time after administration at which no effect was detected: 4 h
  Time of peak antinociceptive action: 30 min

## Dmt-DArg-Phe-Phe-Gln-Phe*-Gln-Phe-Lys-NH2
Human plasma
  cleaved bond: Gln-Phe, first_seen, 2.5 min; also recorded: Gln-Phe, 7.5 min
  fragment found: Dmt-DArg-Phe-OH, 60 min

## H-DLys-DPhe-DGln-DPhe*-DGlu-DPhe-NH2
Human plasma; up to 1500 min
  not cleaved: remains intact after 25 h of incubation

## Cc1cc(O)cc(C)c1C[C@H](N)C(=O)N1CCC[C@H]1C(=O)N[C@@H](Cc1c[nH]c2ccccc12)C(=O)N[C@@H](Cc1ccccc1)C(=O)N[C@@H](CCC(N)=O)C(=O)N[C@@H](Cc1ccccc1)C(=O)N[C@@H](CCC(N)=O)C(=O)N[C@@H](Cc1ccccc1)C(=O)N[C@@H](CCCCN)C(N)=O [CM-58, Dmt-Pro-Trp-Phe-Gln-Phe*-Gln-Phe-Lys-NH2] (H-[Dmt]PWFQFQFK-NH2; N-terminus assumed)
[1]
  half-life at 14 μM: ~12 min
KOR
  Ki: 120 nM
MOR
  Ki: 7.5 nM
DOR
  Ki: 15 nM

## Dmt-DLys-Phe-Phe-Glu-Phe*-Gln-Phe-Lys-NH2
Human plasma
  cleaved bond: Gln-Phe, first_seen, 2.5 min; also recorded: Glu-Phe, 7.5 min

## H-Phe(3Br)-Gln-Phe(3Br)-Gln-Phe(3Br)-Lys-NH2 (H-[Phe(3-Br)]Q[Phe(3-Br)]Q[Phe(3-Br)]K-NH2) [peptide 33]
[2]
  Minimum gelation concentration (w/v % in PBS): 1-2 w/v %
[3]
  Gel strength compared to the non-halogenated peptide: stronger gels

## Dmt-OLy:s-Phe-Phe-Gln-Phe*-Gln-Phe*-Lys-NH2
Human plasma
  fragment found: heptapeptide, first_seen; also recorded: pentapeptide; also recorded: tripeptide

## FQFQFK-NH2 [peptide 16, H-Phe-Gln-Phe*-Gln-Phe-Lys-NH2]
L929 mouse fibroblasts
  Cytotoxicity in vitro: showed no cytotoxicity in vitro
[2]; PBS or saline solution, Example 9
  Minimum gelation concentration (MGC): 1 % w/v
[2]
  Minimum gelation concentration (w/v % in PBS): 2 w/v %
[4]
  Fibre diameter: ~5 nm
In vitro
  half-life at 9 μM: ~3 min

## Cc1cc(O)cc(C)c1C[C@H](N)C(=O)N1CCC[C@H]1C(=O)N[C@@H](Cc1ccccc1)C(=O)N[C@@H](Cc1ccccc1)C(=O)N[C@@H](CCC(=O)O)C(=O)N[C@@H](Cc1ccccc1)C(=O)N[C@@H](CCC(N)=O)C(=O)N[C@@H](Cc1ccccc1)C(=O)N[C@@H](CCCCN)C(N)=O [CM-54, Dmt-Pro-Phe-Phe-Glu-Phe*-Gln-Phe-Lys-NH2]
MOR
  Ki: 135 nM

## WEWQWK-NH2 [peptide 12, H-Trp-Glu-Trp*-Gln-Trp-Lys-NH2]
L929 mouse fibroblasts
  Cytotoxicity in vitro: showed no cytotoxicity in vitro
[2]
  Minimum gelation concentration (w/v % in PBS): 1 w/v %
[4]
  Fibre diameter: ~5 nm
In vitro
  half-life at 9 μM: ~21 min

## NCCCC[C@H](NC(=O)[C@H](Cc1ccccc1)NC(=O)[C@H](CCC(N)=O)NC(=O)[C@H](Cc1ccccc1)NC(=O)C[C@H](Cc1ccccc1)NC(=O)[C@H](CCC(=O)O)NC(=O)[C@@H](N)Cc1ccccc1)C(N)=O [peptide 27, H-Phe-Glu-13;;-homo-Phe-Phe-Gln-Phe-Lys-NH2] (H-FE[β3hF]FQFK-NH2)
L929 mouse fibroblasts
  Cytotoxicity in vitro: showed no cytotoxicity in vitro
[4]
  Fibre diameter: ~5 nm
In vitro
  half-life at 9 μM: ~25 min

## H-DPhe-DGlu-DPhe*-DGln-DPhe-DLys-NH2
Human plasma; up to 5700 min
  not cleaved: remained intact after 4 days of incubation

## KFQFEF-NH2 [peptide 18, H-Lys-Phe-Gln-Phe*-Glu-Phe-NH2]
L929 mouse fibroblasts
  Cytotoxicity in vitro: showed no cytotoxicity in vitro
[2]
  Minimum gelation concentration (w/v % in PBS): 2 w/v %
[4]
  Fibre diameter: ~5 nm
In vitro
  half-life at 9 μM: ~5 min

## Cc1cc(O)cc(C)c1C[C@H](N)C(=O)N1CCC[C@H]1C(=O)N[C@@H](Cc1ccccc1)C(=O)N[C@@H](Cc1ccccc1)C(=O)N[C@@H](CCC(N)=O)C(=O)N[C@@H](Cc1ccccc1)C(=O)N[C@@H](CCC(N)=O)C(=O)N[C@@H](Cc1ccccc1)C(=O)N[C@@H](CCCCN)C(N)=O [CM-56, Dmt-Pro-Phe-Phe-Gln-Phe*-Gln-Phe-Lys-NH2] (H-[Dmt]PFFQFQFK-NH2; N-terminus assumed)
KOR
  Ki: 337 nM
MOR
  Ki: 65 nM
DOR
  Ki: 176 nM
